Measured values as given in patent publication US4885283A, “Phosphinic acid derivatives” (Hoffmann-La Roche Inc., priority 1986, dated 1989).

What was measured:
female rats = experiment: in vivo type II collagen/Freund's incomplete adjuvant rat test: hind paw inflammation and radiological change; conditions: 20 mg kg^-1 twice daily for 12 days via jugular vein catheter
Protocol: Groups of female rats received an intradermal injection into the shaved backs of 10×0.1 ml of an emulsion of type II collagen/Freund's incomplete adjuvant. Ten days later the test compound was administered twice daily at a dosage of 20 mg kg^-1 via indwelling jugular vein catheters; dosing was continued for 12 days. Groups of rats which received the intradermal injection, but which were not treated with test compounds, served as the control. The incidence of hind paw inflammation was assessed visually at intervals throughout the test and was expressed as the proportion of the group showing signs of erythema and/or swelling. Radiological change in the ankle region of the hind paws was assessed at the termination of the test and was quantified using an arbitrary scale of from 0=normal to 6=severe change, results being expressed as group means. Statistical analysis was performed using the Mann-Whitney "U" test.

[1] = biological target: T1, collagenase obtained from a culture of human synovial fibroblasts (Homo sapiens, UniProt P03956); experiment: in vitro inhibition of collagenase (microtitre plate assay, 14C-acetylated collagen type I from rat tail tendons as substrate); format: biochemical; conditions: human synovial fibroblast collagenase, trypsin-activated; 14C-acetylated collagen type I substrate
T1 construct: endogenous in cells; host or cells: culture of human synovial fibroblasts (conditioned medium)
T1 sequence (P03956 100-469): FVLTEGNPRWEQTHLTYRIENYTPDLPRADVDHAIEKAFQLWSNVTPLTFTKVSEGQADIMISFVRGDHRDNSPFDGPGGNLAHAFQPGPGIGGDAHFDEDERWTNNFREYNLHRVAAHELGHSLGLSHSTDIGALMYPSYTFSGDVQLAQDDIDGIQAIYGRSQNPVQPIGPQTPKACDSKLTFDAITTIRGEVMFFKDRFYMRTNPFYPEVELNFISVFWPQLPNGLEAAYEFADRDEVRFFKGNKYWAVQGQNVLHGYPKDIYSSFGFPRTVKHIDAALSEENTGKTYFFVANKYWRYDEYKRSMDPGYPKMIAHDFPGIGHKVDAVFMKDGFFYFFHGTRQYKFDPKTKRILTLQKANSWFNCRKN
Protocol: Collagenase activity was measured using ^14 C-acetylated collagen type I from rat tail tendons as the substrate and employing the microtitre plate assay method of Johnson-Wint, B. Anal. Biochem. (1980), 104, 175. The IC50 is that concentration of a compound of formula I of the invention in the enzyme digestion which reduces substrate cleavage and solubilization to 50% of that achieved by the enzyme alone.
The results obtained in the foregoing test with representative compounds of this invention are compiled in the Table I hereinafter: […]

Row | SMILES | IC50 [1] | Inflammation day 4 (female rats; proportion of group showing erythema and/or swelling of hind paw, Control 8/11) | Radiological scores, Tarsus (female rats; scale 0=normal to 6=severe change, group mean at termination, Control 1.75 ± 0.45) | Radiological scores, Talus (female rats; scale 0=normal to 6=severe change, group mean at termination, Control 2.28 ± 0.53)
1 | CC(C)C[C@@H](CP(=O)(O)Cn1c(=O)[nH]c2ccccc2c1=O)C(=O)N[C@@H]1CCCCCCCCCCNC1=O (single isomer, unassigned) [Compound E, [[1,4-dihydro-2,4-dioxo-3(2H)-quinazolinyl]methyl][(R or S)-4-methyl-2-[[(R or S)-2-oxo-3-azacyclotridecyl]carbamoyl]pentyl]phosphinic acid] | 220 nM | – | – | –
2 | CNC(=O)[C@H](CC(C)C)NC(=O)C(CC(C)C)CP(=O)(O)CN1C(=O)c2cccc(N)c2C1=O (mixture of isomers) [Compound B, [(3-aminophthalimido)methyl][(RS)-4-methyl-2-[[(S)-3-methyl-1-(methylcarbamoyl)butyl]carbamoyl]pentyl]phosphinic acid] | 600 nM | – | – | –

Stronger by IC50 [1], values ahead:

Row | IC50 [1] | SMILES | Inflammation day 4 (female rats; proportion of group showing erythema and/or swelling of hind paw, Control 8/11) | Radiological scores, Tarsus (female rats; scale 0=normal to 6=severe change, group mean at termination, Control 1.75 ± 0.45) | Radiological scores, Talus (female rats; scale 0=normal to 6=severe change, group mean at termination, Control 2.28 ± 0.53)
3 | 110 nM | CC(C)CC(CP(=O)(O)CN1C(=O)c2cccc3cccc(c23)C1=O)C(=O)NC1CCCCCCCCCCNC1=O (single isomer, unassigned) [Compound D, [(R or S)-4-methyl-2-[[(R or S)-2-oxo-3-azacyclotridecyl]carbamoyl]pentyl](1,8-naphthalenedicarboximidomethyl)phosphinic acid] | 3/12 | 0.64 ± 0.37 | 0.86 ± 0.34
4 | 56 nM | CC(C)CC(CP(=O)(O)CNC(=O)[C@H](CC(C)C)NC(=O)[C@@H]1CCCN1C(=O)OCc1ccccc1)C(=O)N[C@@H](CC(C)C)C(=O)N[C@@H](C)C(=O)O (single isomer, unassigned) [Compound A, N-[N-[(R or S)-2-[[[[[N-[1-[(benzyloxy)carbonyl]-L-prolyl]-L-leucyl]amino]methyl]hydroxyphosphinyl]methyl]-4-methylvaleryl]-L-leucyl]-L-alanine] | – | – | –
5 | 160 nM | CNC(=O)[C@H](CC(C)C)NC(=O)C(CC(C)C)CP(=O)(O)CN1C(=O)c2cccc3cccc(c23)C1=O (stereo partly drawn) [Compound C, [(RS)-4-methyl-2-[[(S)-3-methyl-1-(methylcarbamoyl)butyl]carbamoyl]pentyl](1,8-naphthalendicarboximidomethyl)phosphinic acid] | – | – | –
